Data: US20070207104A1, “Antimicrobial esters” (priority 2006, published 2007)
Where two headings read alike, the source gives them in different places.

Legend:
[1] = tested on: Fungi: Candida albicans, Asperillus niger and Penicillium notatum; assay: Minimal inhibitory concentration, agar dilution (Mueller-Hinton), fungi; assay type: cell-based
Procedure: (§1) The minimal inhibitory concentration of the composition was determined based on methods as described in the United States Pharmacopiea, National Formulary (“USP, NF”), NF 18, 1995, Microbial Assays and Journal of Applied Microbiology 89(2): 275-279 by testing microorganisms for their ability to produce visible growth on a series of agar plates containing dilutions of the composition. Mueller-Hinton is the agar medium used in these studies. Dilutions of materials to be tested were made directly into warm molten agar as described below to achieve the final concentration range (0-6%) shown in the Tables below.
(§2) Agar was prepared as recommended by the manufacturer. Sterilized agar was allowed to cool to 50° C. in a water bath and dispensing an appropriate amount into sterile containers. The agent being tested was added to the agar and thoroughly mixed. Plates were then poured and allowed to solidify at room temperature. All plates were used immediately and not stored.
(§3) Broth cultures (24 hours) were adjusted photometrically to give 10^7 CFU/ml (colony forming units/ml) and the plates were inoculated within 30 minutes of standardizing the inoculum. A standard inoculating loop was used to deliver and spread the inoculum on the plates. Plates were allowed to dry at room temperature before inverting and incubation. Bacterial plates were incubated at 35° C. for 48 hours while fungal plates were incubated at 25° C. for 72 hours. All plates were visually inspected immediately following incubation and the results recorded.
(§4) The organisms tested were the following: Gram-positive bacteria: Staphylococcus aureus, and Bacillus subtilis; Gram-negative bacteria: Escherichia coli and Pseudomonas aeruginosa; and Fungi: Candida albicans, Asperillus niger and Penicillium notatum.
(§5) The effects of the structure of the polyhydric alcohol, the structure of the carboxylic acid and the extent of alkoxylation on antimicrobial activity were determined using the MIC assay as described in Example 1. The results below are expressed as the concentration (%) of agent corresponding to the MIC for each group of organisms tested.

[2] = tested on: Gram-negative bacteria: Escherichia coli and Pseudomonas aeruginosa; assay: Minimal inhibitory concentration, agar dilution (Mueller-Hinton), Gram-negative bacteria; assay type: cell-based; settings: for Minimum Inhibitory Concentration (MIC): Gram Negative Bacteria Escherichia coli, Pseudomonas aeruginosa; for visible growth on agar plates: Gram Negative Organisms, concentration 0.3 %
Procedure: as §1, §2, §3, §4, §5

[3] = tested on: Gram-positive bacteria: Staphylococcus aureus, and Bacillus subtilis; assay: Minimal inhibitory concentration, agar dilution (Mueller-Hinton), Gram-positive bacteria; assay type: cell-based; settings: for Minimum Inhibitory Concentration (MIC): Gram Positive Bacteria Staphylococcus aureus, Staphlyococcus epidermidis, Bacillus subtilis; for visible growth on agar plates: Gram Positive Organisms, concentration 0.3 %
Procedure: Mueller-Hinton is the agar medium used in these studies. Dilutions of materials to be tested were made directly into warm molten agar as described below to achieve the final concentration range (0-6%) shown in the Tables below.
as §2
as §3, with “A” for “Broth cultures (24 hours) were adjusted photometrically to give 10^7 CFU/ml (colony forming units/ml) and the plates were inoculated within 30 minutes of standardizing the inoculum. A”
as §4
The results below are expressed as the concentration (%) of agent corresponding to the MIC for each group of organisms tested.

[4] = Solubility in water / oil; assay type: physicochemical
HLB value = assay type: physicochemical
[5] = Safety testing: neat material on forearm of human volunteers under occlusive conditions for 48 hours; assay type: in vivo; design: key to dermal response score (6-point scale): 0=No evidence of any effect; +=Barely perceptible (Minimal, faint, uniform or spotty erythema); 1=Mild (Pink, uniform erythema covering most of the contact site); 2=Moderate (Pink-red erythema uniform in the entire contact site); 3=Marked (Bright re erythema with/without petechiae or papules); 4=Severe (Deep red erythema with/without vesiculation or weeping)
Procedure: The safety of G-18-O was tested using the neat (undiluted) material applied to the forearm of 51 human volunteers under occlusive conditions for 48 hours. These conditions are particularly aggressive, especially when compared with those in the prior art, where data on safety, if disclosed at all, is generally anecdotal using low concentrations of the agent. The dermal responses for G-18-O were scored by expert evaluators under clinical conditions according to the following 6-point scale: • 0=No evidence of any effect; • +=Barely perceptible (Minimal, faint, uniform or spotty erythema); • 1=Mild (Pink, uniform erythema covering most of the contact site); • 2=Moderate (Pink-red erythema uniform in the entire contact site); • 3=Marked (Bright re erythema with/without petechiae or papules); and • 4=Severe (Deep red erythema with/without vesiculation or weeping).

[6] = tested on: Gram-positive and Gram-negative organisms as well as fungi; assay: Antimicrobial activity in the MIC assay, all groups of organisms tested; assay type: cell-based
Procedure: as §1, §2
as §3, with “recorded. […]” for “recorded.”
as §5

In the case of Glycereth-20 Ethylhexanoate, the “Minimum Inhibitory Concentration (MIC)” value [1] is reported as 3%, the “Minimum Inhibitory Concentration (MIC)” value [2] is reported as 3% and the “Minimum Inhibitory Concentration (MIC)” value [3] is reported as 3%.
For CCCCCCCC(=O)OCC(O)CO (centres unmarked) [Glyceryl Caprylate, reference compound], the “visible growth on agar plates” value [2] was 50%, the “visible growth on agar plates” value [3] was 50% and the oil solubility [4] was “substantially oil soluble”.
With Glycereth-18 Ethylhexanoate [G-18-O] the HLB value (HLB value) was “greater than 10”, the “Minimum Inhibitory Concentration (MIC)” value [1] was 1.5% and the “Minimum Inhibitory Concentration (MIC)” value [2] was 0.6%. The “visible growth on agar plates” value [2] was 50%, the “dermal response score (6-point scale)” value ([5]; forearm of 51 human volunteers, occlusive, all panelists) was 0 and the skin irritation ([5]; intimate contact with skin, occlusive conditions) was “totally non-irritating”. The “Minimum Inhibitory Concentration (MIC)” value [3] was 0.6%, the “visible growth on agar plates” value [3] was 50% and the antimicrobial activity [6] was “effective antimicrobial agent”. For the same compound, the antimicrobial activity ([6]; listed as G-18-0) was “essentially equal to that of glyceryl caprylate”, the water solubility [4] was “very water soluble” and the water solubility ([4]; listed as G-18-0) was “substantially water-soluble”. The water solubility ([4]; listed as Glycereth-18 ethylhexanoate) was “very water-soluble”.
With Glycereth-18 [reference compound] the “Minimum Inhibitory Concentration (MIC)” value [1] was “>=6%”, the “Minimum Inhibitory Concentration (MIC)” value [2] was “>=6%” and the “Minimum Inhibitory Concentration (MIC)” value [3] was “>=6%”. The antimicrobial activity [6] was “no activity”.
With Glycereth-18 Laurate the “Minimum Inhibitory Concentration (MIC)” value [1] was “>=6%”, the “Minimum Inhibitory Concentration (MIC)” value [2] was 0.6% and the “Minimum Inhibitory Concentration (MIC)” value [3] was 0.6%.
In the case of Glycereth-7 Ethylhexanoate, the “Minimum Inhibitory Concentration (MIC)” value [1] is reported as 1.5%, the “Minimum Inhibitory Concentration (MIC)” value [2] is reported as 3% and the “Minimum Inhibitory Concentration (MIC)” value [3] is reported as 3%.
For Glycereth-18 Pelargonate, the “Minimum Inhibitory Concentration (MIC)” value [1] was 1.5%, the “Minimum Inhibitory Concentration (MIC)” value [2] was “>=6%” and the “Minimum Inhibitory Concentration (MIC)” value [3] was “>=6%”.
In the case of Glycereth-40 Ethylhexanoate, the “Minimum Inhibitory Concentration (MIC)” value [1] is reported as 1.5%, the “Minimum Inhibitory Concentration (MIC)” value [2] is reported as 3% and the “Minimum Inhibitory Concentration (MIC)” value [3] is reported as 3%.
With Glycereth-18 Benzoate the “Minimum Inhibitory Concentration (MIC)” value [1] was “>=6%”, the “Minimum Inhibitory Concentration (MIC)” value [2] was 3% and the “Minimum Inhibitory Concentration (MIC)” value [3] was 3%.
For Propylene Glycol-18 Ethylhexanoate, the “Minimum Inhibitory Concentration (MIC)” value [1] was 1.5%, the “Minimum Inhibitory Concentration (MIC)” value [2] was “>=6%” and the “Minimum Inhibitory Concentration (MIC)” value [3] was “>=6%”.
